The nature of series [1]: Formation of progesterone oxime 3 from prodrugs in human plasma at 37 °C over 2 h. Format: in vitro ADME. The following applies: 2 h period. How it is done: Given the greater biological relevance of plasma, we focused on quantifying the formation of progesterone and allopregnanolone oxime in human plasma at 37 °C over a 2 h period. Results for selected progesterone prodrugs are presented in Figure A–C, illustrating the broad range of plasma cleavage rates as a function of promoiety design (see Figure S13 in Supporting Information for complete data set). Complete stability data for synthesized allopregnanolone prodrugs (Figures S18–S20) are provided in the Supporting Information. Given that their trends closely paralleled the progesterone series, they were not discussed in detail in the main text. […] This unexpected result prompted further investigation using computational modeling, described in the following section. […] Higher pK a values were associated with faster and more complete oxime formation, likely due to enhanced H-bonding which could stabilize the reactive syn-conformer. […] For the heterocyclic pyrrolidine and angle-strained series (Figure C), the release rates closely matched the experimentally determined prodrug half-lives (Table ), which were shorter in human plasma than in PBS. […] Although both 20s and 20t are capable of adopting the reactive syn-rotamer, their self-immolation reactivity diverged due to differences in linker geometry. The cyclopropane in 20s induces angle strain that hinders nucleophilic attack, rendering the compound stable under both PBS and plasma conditions. […] This intriguing result warrants further investigation, with follow-up studies currently in progress. Finally, the nucleophilic capacity of the amine tethers in prodrugs 20w–20z were evaluated based on their ability to cyclize in plasma, as detailed in the Supporting Information Figure S13.
1.2 Stability in Plasma and PBS via LCMS
Procaine (positive control) was purchased from Sigma-Aldrich. HPLC grade MeCN, MeOH, H2O, and FA were purchased from Fischer Scientific. Human plasma (cat. No. […]- […]
0102242) were obtained from BIOIVT. DPBS 1X (no calcium, no magnesium, pH = 7.03) was purchased from Thermo Fischer Scientific. Stock solutions were prepared in 100% DMSO, and suitable dilutions of target analytes were prepared in 0.1% FA /MeCN for method development.
For PBS assay Gibco® Dulbecco’s phosphate-buffered saline (DPBS 1X, no calcium, no magnesium, pH = 7.03) was utilized. All experiments were performed in duplicate and results are presented as the average of two experimental replicates.
Procedure for Plasma Stability Assay
Test compounds and positive control (i.e. procaine) were dissolved in DMSO to make a 10 mM stock solution and subsequently diluted to 500 μM in 50% MeCN and PBS. […] The supernatant was transferred to an LC-MS vial and analyzed by LC/MS-MS. […]

The nature of series [2]: Stability in acetate buffer pH 5.0 at room temperature via HPLC (UV). Type of series: physicochemical. In a few lines:
(§1)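 Progesterone prodrugs dissolved at 1 mg/mL in PBS (pH 7.03) or 10 mM acetate buffer (pH 5.0), kept at RT and reinjected over time, HPLC-UV AUC at 254 nm. Percent parent remaining; k from ln(%remaining) vs time, pseudo-first-order t1/2 = 0.693/k; duplicates averaged.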

Series [3] is described as follows: Stability in PBS at room temperature via HPLC (UV). Type of series: physicochemical. To be noted: phosphate-buffered saline (DPBS). The method, boiled down:
as §1

The nature of series [4]: Aqueous solubility by visual inspection in acetate buffer (pH 5). To be noted: for solubility: sodium acetate buffer.
Procedure: For the solubility assessment, acetate buffer (pH 5) was selected as the media of choice to ensure prodrug stability during analysis.
High aqueous solubility was determined by visual inspection of 5 mg solid material in 0.5 mL
sodium acetate buffer solution. This media was selected to ensure stability of prodrugs during
dissolution in 50 mg/mL aqueous media.
Series [5] is described as follows: PBS stability assay at 37 °C via LC-MS/MS. To be noted: for half-life at 3 µM: phosphate-buffered saline (DPBS), pH 7.03, PBS; for PBS, 37 °C %rem. at 2h (Table S23) / half-life at 3 µM: 37 °C. Type of series: physicochemical.
Procedure: (§2) To address this, prodrug stability was further evaluated in human plasma at 37 °C using liquid chromatography–tandem mass spectrometry (LC-MS/MS). For direct comparison, a parallel screen was conducted in PBS under identical conditions (Table ). To prevent premature degradation prior to LC-MS/MS analysis, acetonitrile containing formic acid was used as a quenching solution to acidify and stabilize the prodrugs in vials. […] This limitation in detection, along with the need for a more uniform and broadly applicable assessment across all compounds, prompted us to monitor the formation of the parent oxime as an alternative readout.
(§3) Stability experiments in human plasma and PBS were performed via liquid chromatography-tandem mass spectrometry (LC-MS/MS) to determine and compare rate of cleavage of progesterone prodrugs as well as selected allopregnanolone prodrugs (3 µM) when incubated at 37 °C. All experiments were performed in duplicate and results are presented as the average of two experimental replicates.
Series [6] can be described thus: Plasma stability assay at 37 °C via LC-MS/MS, human plasma.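 On all read-outs here: prodrugs at 3 µM incubated in human plasma at 37 °C, intact prodrug quantified by LC-MS/MS over time, values are means of duplicate runs.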 Format: in vitro ADME. The following applies: for t1/2 in human plasma at 37 °C (Tables S10-S13, S18): 3 µM; for half-life at 3 µM: human, plasma, read-out: Plasma, 37 °C t½ (Table S23) (converted).
Procedure: as §2, §3
The mark [7] stands for this setting: pH 5, acetate buffer pH 5.0, RT, 1 mg/mL, HPLC 254 nm, read-out: t1/2 in acetate buffer at RT (Tables S5-S8) (converted).
[8] abbreviates: pH 5, acetate buffer pH 5.0, rt, HPLC (UV), read-out: Half-life (t½) pH 5.0 rt (converted).
Setting [9] is: pH 5, acetate buffer pH 5.0, rt, read-out: t½: pH 5.0, rt (Table S23) (converted).
Where [10] appears, read: pH 7.03, DPBS pH 7.03, RT, 1 mg/mL, HPLC 254 nm, read-out: t1/2 in PBS buffer at RT (Tables S1-S4) (converted).
The mark [11] stands for this setting: pH 7.03, PBS, rt, HPLC (UV), read-out: Half-life (t½) PBS rt (converted).
Setting [12] is: pH 7.03, PBS, rt, read-out: t½: PBS, rt (Table S23) (converted).
Setting [13] is: pH 5, aqueous buffer, thermodynamic from solid.
The mark [14] stands for this setting: 3 µM, LC-MS/MS, read-out: t1/2 in PBS at 37 °C (Tables S14-S17) (converted).
The mark [15] stands for this setting: read-out: PBS, 37 °C t½ (Table S23) (converted).

Bounds are passed on as bounds.

The term solubility denotes the dissolved amount per volume that the medium holds. Low readings indicate little dissolved substance, high ones much dissolved substance.

As for `CNCCN(CCN(C)C)C(=O)O/N=C(\C)[C@H]1CC[C@H]2[C@@H]3CCC4=CC(=O)CC[C@]4(C)[C@H]3CC[C@]12C` [20g], in series [1], the “Formation/release of oxime 3 in human plasma, in words” value (shortened to “Formation/release”) is “rapid, first-order release”. The half-life at 1 mg/mL was 75.8 h in series [2] (setting [7]); 75.8 h in series [2] (setting [8]); 75.8 h in series [2] (setting [9]); 2.17 ± 0.02 h in series [3] (setting [10]); 2.17 h in series [3] (setting [11]); 2.17 h in series [3] (setting [12]). The solubility in series [4] (setting [13]) was less than 10000 µg/mL.

As for `C/C(=N\OC(=O)N(C)CC[C@@H]1CCCN1)[C@H]1CC[C@H]2[C@@H]3CCC4=CC(=O)CC[C@]4(C)[C@H]3CC[C@]12C.O=C(O)C(F)(F)F` [20n], the “PBS, 37 °C %rem. at 2h (Table S23)” value in series [5] (PBS) was 77%. Besides, the half-life at 3 µM in series [5] (setting [14]) was 26.5 h; in series [5] (setting [15]), 26.5 h; in series [6], more than 24 h. Further, the “t1/2 in human plasma at 37 °C (Tables S10-S13, S18)” value in series [6] (LC-MS/MS) is on record as “stable”. Also, the “Plasma, 37 °C %rem. at 2h (Table S23)” value in series [6] is “stable”. In addition, in series [1], the “Formation/release” value is recorded as “low levels of oxime”. Besides, the half-life at 1 mg/mL in series [2] (setting [7]) was more than 168 h; in series [2] (setting [9]) it was more than 168 h; in series [3] (setting [10]), more than 24 h; in series [3] (setting [12]), more than 24 h. Also, the solubility in series [4] (setting [13]) is more than 10000 µg/mL.

On to `C/C(=N\OC(=O)N(C)C[C@@H]1CC(F)(F)CN1)[C@H]1CC[C@H]2[C@@H]3CCC4=CC(=O)CC[C@]4(C)[C@H]3CC[C@]12C` [20r], for which the “Prodrug stability / self-immolation in buffer, in words” value in series [5] (PBS) is listed as “highly stable, noncleaving prodrug”. The “PBS, 37 °C %rem. at 2h (Table S23)” value in series [5] (PBS) worked out at 72%. Further, the half-life at 3 µM in series [5] (setting [14]) is 4.93 h; in series [5] (LC-MS/MS, read-out: Half-life (t½) PBS 37°C (converted)) it was 4.93 h; in series [5] (setting [15]) it was 4.93 h; in series [6], more than 24 h. For the same compound, the “t1/2 in human plasma at 37 °C (Tables S10-S13, S18)” value in series [6] (LC-MS/MS) is listed as “stable”. Besides, in series [6], the “Plasma, 37 °C %rem. at 2h (Table S23)” value is “stable”. In series [6] (LC-MS/MS), the “Half-life (t½) Plasma 37°C” value was “stable”. In series [1], the “Formation/release” value is “low levels of oxime”. In series [4] (pH 5), this compound came in with a solubility of less than 10000 µg/mL.

As to `CNCCN(CCN1CCCC1)C(=O)O/N=C(\C)[C@H]1CC[C@H]2[C@@H]3CCC4=CC(=O)CC[C@]4(C)[C@H]3CC[C@]12C.O=C(O)C(F)(F)F` [20h], in series [1], the “Formation/release” value is given as “rapid, first-order release”. In addition, the half-life at 1 mg/mL is 105 h in series [2] (setting [7]); 105 h in series [2] (setting [8]); 105 h in series [2] (setting [9]); 7.23 ± 1.9 h in series [3] (setting [10]); 7.23 h in series [3] (setting [11]); 7.23 h in series [3] (setting [12]). For the same compound, the “Solubility pH 5.0, rt” value in series [4] (sodium acetate buffer pH 5, rt, visual inspection) was “degrades”. Also, the solubility in series [4] (setting [13]) is less than 10000 µg/mL.

The record behind these values is article PMC12516379, “Rotamer-Controlled Self-Immolative Linkers Enable Tunable Release of Neurosteroid Oxime Prodrugs” (ACS Medicinal Chemistry Letters, 2025).
